As usually defined, the KD is the equilibrium constant for the complex coming apart. Read a high KD as lower affinity. Usually Kd stands for the free concentration of one partner at which half of the binding sites on the other are occupied at equilibrium, for simple one-to-one binding.

This is an account of results in PMC3711446 (2013).

Data set [1] concerns TAMRA-(CUG)6 (RNA, repeat) CUGCUGCUGCUGCUGCUG
As to the kind of experiment: fluorescence titration. The note with it: PBS 1x (137 mM NaCl, 2.7 mM KCl); PBS pH 7.4, 20 °C; 20 nM RNA.

The target in data set [2] is T1, MBNL1N, Cy3-labeled (UniProt Q9NR56 1-253).
T1 sequence: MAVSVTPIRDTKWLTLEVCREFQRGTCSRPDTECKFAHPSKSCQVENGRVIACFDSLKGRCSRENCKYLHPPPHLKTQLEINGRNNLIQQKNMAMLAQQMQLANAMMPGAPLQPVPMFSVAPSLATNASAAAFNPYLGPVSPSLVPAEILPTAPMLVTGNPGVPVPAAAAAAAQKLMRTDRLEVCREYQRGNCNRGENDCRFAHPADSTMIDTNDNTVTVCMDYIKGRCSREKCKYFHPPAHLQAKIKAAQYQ
In words: single-molecule TIRFM.

In data set [1], `Nc1nc(N)nc(NCCCCNc2c3ccccc3nc3c(C(=O)NCCCNCCCNCCCNC(=O)c4cccc5c(NCCCCNc6nc(N)nc(N)n6)c6ccccc6nc45)cccc23)n1` gave an equilibrium dissociation constant (KD) of 318 ± 15 nM.

On to `CNC(=O)c1ccc2nc3ccccc3c(NCCCCNc3nc(N)nc(N)n3)c2c1`, for which the KD in data set [1] came to 66000 ± 2000 nM. In data set [2], GCUGCUGUUCGCUGCUG (structured_RNA, 3' TEG-biotin) [(CUG)4 TIRF construct] yielded a Kd of 3.1 ± 0.1 nM.
